Laboratory results as given in US20230407243A1, “GENETIC PLATFORM TO INVESTIGATE THE FUNCTIONS OF BACTERIAL DRUG EFFLUX PUMPS” (priority 2022, published 2023).
Like-named read-outs stand apart in the source and are kept apart here.

Tests used:
Type in all cases: cell-based, Escherichia coli
E. coli EKO-35 = assay: microbe, parasite or virus in culture; settings: for Fold change of MICs: EKO-35 compared to EKO-35 (reference); for MIC: Escherichia coli
Outline: (§1)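 OD600 read-out, background-corrected, after 18 h at 37 °C with shaking. Compounds were tested in duplicate as 2-fold series in MHB II, with DMSO as solvent control. Inoculum was a 1/2000 dilution of an OD600 ~1.0 PBS suspension.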

E. coli ΔtolC = assay: microbe, parasite or virus in culture; settings: for MIC: Escherichia coli, 18 h, read-out: Minimum Inhibitory Concentration, ΔtolC; for Minimum inhibitory concentration (MIC), ΔtolC: Table 10, without pore, technical duplicate
Outline: as §1

[1] = test system: wild-type E. coli K-12 str. BW25113; assay: microbe, parasite or virus in culture; settings: Escherichia coli
Outline: as §1

EKO-35 araC::acrBD408A = assay: MIC susceptibility profiling, efflux platform; settings: for Fold change of MICs: EKO-35 araC::acrBD408A compared to EKO-35; for MIC: Escherichia coli, Table 13B, non-porinated, technical duplicate, read-out: Minimum Inhibitory Concentration, EKO-35 araC::acrBD408A
Outline: as §1

EKO-35 araC::acrB = assay: MIC susceptibility profiling, efflux platform; settings: for Fold change of MICs: EKO-35 araC::acrB compared to EKO-35
Outline: as §1

EKO-35 araC::acrD = assay: MIC susceptibility profiling, efflux platform; settings: for Fold change of MICs: EKO-35 araC::acrD compared to EKO-35
Outline: as §1

EKO-35 araC::acrEF = assay: MIC susceptibility profiling, efflux platform; settings: for Fold change of MICs: EKO-35 araC::acrEF compared to EKO-35; for MIC: Escherichia coli, Table 13A, non-porinated, technical duplicate, read-out: Minimum Inhibitory Concentration, EKO-35 araC::acrEF
Outline: as §1

EKO-35 araC::emrAB = assay: MIC susceptibility profiling, efflux platform; settings: for Fold change of MICs: EKO-35 araC::emrAB compared to EKO-35
Outline: as §1

EKO-35 araC::emrKY = assay: MIC susceptibility profiling, efflux platform; settings: for Fold change of MICs: EKO-35 araC::emrKY compared to EKO-35
Outline: as §1

EKO-35 araC::macAB = assay: MIC susceptibility profiling, efflux platform; settings: for Fold change of MICs: EKO-35 araC::macAB compared to EKO-35
Outline: as §1

EKO-35 araC::mdtBC = assay: MIC susceptibility profiling, efflux platform; settings: for Fold change of MICs: EKO-35 araC::mdtBC compared to EKO-35
Outline: as §1

EKO-35 araC::mdtEF = assay: MIC susceptibility profiling, efflux platform; settings: for Fold change of MICs: EKO-35 araC::mdtEF compared to EKO-35
Outline: as §1

[2] = test system: EKO-35 araC::mexCD (MexCD from P. aeruginosa); assay: MIC susceptibility profiling, efflux platform; settings: for Fold change of MICs: EKO-35 araC::mexCD compared to EKO-35; for MIC: Table 13B, non-porinated, technical duplicate, read-out: Minimum Inhibitory Concentration, EKO-35 araC::mexCD
Outline: as §1

wild-type (WT) K-12-Pore = assay: microbe, parasite or virus in culture; settings: Escherichia coli
Outline: (§2)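 Strains carry the fhuA ΔC/Δ4L pore integrated between glmS and pstS under a constitutive promoter, with pore activity checked by vancomycin susceptibility. Overnight LB cultures were adjusted in PBS pH 7.4 to OD600 ~1.0 and diluted 1/2000 into MHB II. 2-fold compound titrations were read by OD600 after 18 h at 37 °C.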

ΔtolC-Pore = assay: microbe, parasite or virus in culture; settings: for MIC: Escherichia coli, 18 h, read-out: Minimum inhibitory concentration, ΔtolC-Pore; for Minimum inhibitory concentration (MIC), Pore ΔtolC: Table 10, with pore, technical duplicate
Outline: as §2

EKO-35-Pore = assay: MIC susceptibility profiling, porinated strain; settings: for Fold changes of MICs: EKO-35-Pore compared to EKO-35-Pore (reference); for MIC: Escherichia coli, technical duplicate
Outline: as §2

EKO-35 araC::acrB Pore = assay: MIC susceptibility profiling, porinated efflux platform; settings: for Fold changes of MICs: EKO-35 araC::acr-B Pore compared to EKO-35-Pore; for MIC: Escherichia coli, Table 14A, porinated, technical duplicate, read-out: Minimum inhibitory concentration, EKO-35 araC::acrB Pore
Outline: as §2

EKO-35 araC::mdtBC Pore = assay: as above; settings: for Fold changes of MICs: EKO-35 araC::mdtBC Pore compared to EKO-35-Pore
Outline: as §2

EKO-35 araC::mdtEF Pore = assay: as above; settings: for Fold changes of MICs: EKO-35 araC::mdtEF Pore compared to EKO-35-Pore
Outline: as §2

| Compound | Fold change of MICs (E. coli EKO-35) [fold] | MIC (E. coli ΔtolC) [µg/mL] | Minimum inhibitory concentration (MIC), ΔtolC (E. coli ΔtolC) [µg/mL] | Fold change of MICs (EKO-35 araC::acrBD408A) [fold] | MIC (EKO-35 araC::acrBD408A) [µg/mL] | Fold change of MICs (EKO-35 araC::acrB) [fold] | Fold change of MICs (EKO-35 araC::acrD) [fold] | Fold change of MICs (EKO-35 araC::acrEF) [fold] | MIC (EKO-35 araC::acrEF) [µg/mL] | Fold change of MICs (EKO-35 araC::emrAB) [fold] | Fold change of MICs (EKO-35 araC::emrKY) [fold] | Fold change of MICs (EKO-35 araC::macAB) [fold] | Fold change of MICs (EKO-35 araC::mdtBC) [fold] | Fold change of MICs (EKO-35 araC::mdtEF) [fold] | Fold change of MICs [2] [fold] | MIC [2] [µg/mL] | MIC (ΔtolC-Pore) [µg/mL] | Minimum inhibitory concentration (MIC), Pore ΔtolC (ΔtolC-Pore) [µg/mL] | Fold changes of MICs (EKO-35-Pore) [fold] | Fold changes of MICs (EKO-35 araC::acrB Pore) [fold] | other results |
| --- | --- | --- | --- | --- | --- | --- | --- | --- | --- | --- | --- | --- | --- | --- | --- | --- | --- | --- | --- | --- | --- |
| CN(C)[C@@H]1C(O)=C(C(N)=O)C(=O)[C@@]2(O)C(O)=C3C(=O)c4c(O)cccc4[C@@](C)(O)[C@H]3C[C@@H]12 [tetracycline] | 1 | 0.391 | 0.391 | 1 | 0.195 | 4 | 1 | 1 | 0.195 | 1 | 1 | 1 | 1 | 1 | 1 | 0.195 | 0.391 | 0.391 | 1 | 2 | MIC (E. coli EKO-35; EKO35, Table 10, without pore, technical duplicate, read-out: Minimum inhibitory concentration (MIC), EKO-35): 0.195 µg/mL; MIC (E. coli EKO-35; EKO35, Table 13A, non-porinated, technical duplicate, read-out: Minimum Inhibitory Concentration, EKO-35): 0.195 µg/mL; MIC ([1]; BW25113, Table 10, without pore, technical duplicate, read-out: Minimum inhibitory concentration (MIC), K-12): 1.56 µg/mL; MIC ([1]; BW25113, Table 13A, non-porinated, technical duplicate, read-out: Minimum Inhibitory Concentration, K-12): 1.56 µg/mL; MIC (EKO-35 araC::acrD; Escherichia coli, Table 13A, non-porinated, technical duplicate, read-out: Minimum Inhibitory Concentration, EKO-35 araC::acrD): 0.195 µg/mL; MIC (EKO-35 araC::emrAB; Escherichia coli, Table 13B, non-porinated, technical duplicate, read-out: Minimum Inhibitory Concentration, EKO-35 araC::emrAB): 0.195 µg/mL; MIC (EKO-35 araC::emrKY; Escherichia coli, Table 13B, non-porinated, technical duplicate, read-out: Minimum Inhibitory Concentration, EKO-35 araC::emrKY): 0.195 µg/mL; MIC (EKO-35 araC::macAB; Escherichia coli, Table 13B, non-porinated, technical duplicate, read-out: Minimum Inhibitory Concentration, EKO-35 araC::macAB): 0.195 µg/mL; MIC (EKO-35 araC::mdtBC; Escherichia coli, Table 13B, non-porinated, technical duplicate, read-out: Minimum Inhibitory Concentration, EKO-35 araC::mdtBC): 0.195 µg/mL; MIC (EKO-35 araC::mdtEF; Escherichia coli, Table 13A, non-porinated, technical duplicate, read-out: Minimum Inhibitory Concentration, EKO-35 araC::mdtEF): 0.195 µg/mL; MIC (wild-type (WT) K-12-Pore; Table 10, with pore, technical duplicate, read-out: Minimum inhibitory concentration (MIC), Pore K-12): 0.781 µg/mL; MIC (wild-type (WT) K-12-Pore; Table 14A, porinated, technical duplicate, read-out: Minimum inhibitory concentration, K-12 (WT)-Pore): 0.781 µg/mL; MIC (EKO-35-Pore; Table 10, with pore, read-out: Minimum inhibitory concentration (MIC), Pore EKO-35): 0.195 µg/mL; MIC (EKO-35-Pore; Table 14A, porinated, read-out: Minimum inhibitory concentration, EKO-35-Pore): 0.195 µg/mL; MIC (EKO-35 araC::acrB Pore): 0.391 µg/mL; Fold changes of MICs (EKO-35 araC::mdtBC Pore): 1 fold; MIC (EKO-35 araC::mdtBC Pore; Escherichia coli, EKO-35 araC::mdtBC Pore, technical duplicate, read-out: Minimum inhibitory concentration): 0.195 µg/mL; Fold changes of MICs (EKO-35 araC::mdtEF Pore): 1 fold; MIC (EKO-35 araC::mdtEF Pore; Escherichia coli, Table 14A, porinated, technical duplicate, read-out: Minimum inhibitory concentration, EKO-35 araC::mdtEF Pore): 0.195 µg/mL |
| COc1cc(Cc2cnc(N)nc2N)cc(OC)c1OC [trimethoprim] | 1 | 0.098 | 0.098 | 0 | 0.098 | 8 | 2 | 4 | 0.781 | 1 | 1 | 1 | 1 | 2 | 2 | 0.391 | 0.049 | 0.049 | 1 | 4 | MIC (E. coli EKO-35; EKO35, read-out: Minimum Inhibitory Concentration, EKO-35): 0.195 µg/mL; MIC (E. coli EKO-35; EKO35, read-out: Minimum inhibitory concentration (MIC), EKO-35): 0.195 µg/mL; MIC ([1]; BW25113, read-out: Minimum Inhibitory Concentration, K-12): 0.391 µg/mL; MIC ([1]; BW25113, read-out: Minimum inhibitory concentration (MIC), K-12): 0.391 µg/mL; MIC (EKO-35 araC::acrB; Escherichia coli, Table 13A, non-porinated, technical duplicate, read-out: Minimum Inhibitory Concentration, EKO-35 araC::acrB): 1.56 µg/mL; MIC (wild-type (WT) K-12-Pore; read-out: Minimum inhibitory concentration (MIC), Pore K-12): 0.391 µg/mL; MIC (wild-type (WT) K-12-Pore; read-out: Minimum inhibitory concentration, K-12 (WT)-Pore): 0.391 µg/mL; MIC (EKO-35 araC::acrB Pore): 0.781 µg/mL; Fold changes of MICs (EKO-35 araC::mdtBC Pore): 1 fold; Fold changes of MICs (EKO-35 araC::mdtEF Pore): 2 fold |
